Laboratory results reported in US20150327444A1, “PROCESS FOR THE OVERPRODUCTION OF SHIKIMIC ACID AND PHENOLIC ACIDS IN FRUIT AND VEGETABLE CROPS” (Instituto Tecnologico y de Estudios Superiores de Monterry, priority 2013, published 2015).

Key:
carrots (Daucus carota) [1] = assay: Overproduction of SA and PC by wounding stress and sprayed glyphosate 482 g/L in carrot tissue (Example 6)
Method: (§1) The plant material used in this example comprised carrots (Daucus carota) obtained from a local supermarket (Monterrey, N. L., Mexico), which were washed and disinfected with chlorinated water in a concentration of 200 ppm, pH 6.5, in a ratio of 1:3 kg of plant material:liters of chlorinated water, for 10 min.
(§2) This stage was carried out by grating the carrot with a commercial vegetable grater. Stressed grated carrots having a diameter of 0.7 cm were obtained.
(§3) In this stage, the stressed grated plant tissue was treated by spraying (commercial sprayer) 100 mL of a concentrated solution of glyphosate (482 g/L).
Finally, the treated grated material was incubated at 25° C. for 24 hours at atmospheric pressure with a relative humidity of 65%, in total darkness, to determine the combined effect of wounding stress and glyphosate application on the accumulation of SA and PC.

carrots (Daucus carota) [2] = assay: Effect of grinding on SA and PC in wounding-stressed, glyphosate-sprayed carrot tissue (Example 8)
Method: as §1, §2, §3
The treated grated material was incubated at 25° C. […] at atmospheric pressure with a relative humidity of 65%, in total darkness, to determine the combined effect of wounding stress and glyphosate application on the accumulation of SA and PC.

carrots (Daucus carota) [3] = assay: Effect of drying on SA and PC in wounding-stressed, glyphosate-sprayed carrot tissue (Example 7); details: for Increase in concentration in dehydrated glyphosated grated material stored for 24 hours: vs grated carrot prior to storage (0 hours)
Method: as §1, with “min. This stage was carried out by grating the carrot with a commercial vegetable grater.” for “min.”

carrots (Daucus carota) [4] = assay: Effect of wounding stress on accumulation of SA in grated carrot during storage (Example 1); details: vs grated carrot prior to storage (0 hours); 25° C., no glyphosate
Method: as §1
Stage a) The previously washed and disinfected carrots were subjected to post-harvest abiotic stress.
as §2
Stage b) Incubation of the grated carrot stressed in a) to encourage the production and accumulation of SA and PC. […]
The SA was extracted from the horticultural crop using two different processes based on the method of detection and quantification which was to be used (spectrophotometry or chromatography). […]
The SA extracts were analyzed following a method reported by Zelaya, I. A., Anderson, J. A., Owen, M. D. and Landes, R. D. Evaluation of spectrophotometric and HPLC methods for shikimic acid determination in plants: models in glyphosate-resistant and susceptible crops. […] The SA oxidized through the effect of the reaction was detected at 382 nm using a microplates reader (Synergy HT, Bio-Tek Instruments Inc., Winooski, Vt., USA). A standard curve for SA was constructed (1-1000 μM) to quantify the compound. […]

carrots (Daucus carota) [5] = assay: HPLC-PDA quantification of SA and individual phenolic compounds in grated carrot sprayed with glyphosate at different concentrations (Example 5); details: after 24 hours' storage; estimated from HPLC-PDA
carrots (Daucus carota) [6] = assay: Effect of grinding on accumulation of SA in wounding-stressed grated carrot (Example 3); details: vs grated carrot prior to storage (0 hours)
Method: as §1
(§4) This stage was carried out by grating the carrot with a commercial vegetable grater. Stressed grated carrots having a diameter of 0.7 cm were obtained. […]
(§5) The SA extracts were analyzed following a method reported by Zelaya, I. A., Anderson, J. A., Owen, M. D. and Landes, R. D. Evaluation of spectrophotometric and HPLC methods for shikimic acid determination in plants: models in glyphosate-resistant and susceptible crops. […] The SA oxidized through the effect of the reaction was detected at 382 nm using a microplates reader (Synergy HT, Bio-Tek Instruments Inc., Winooski, Vt., USA). A standard curve for SA was constructed (1-1000 μM) to quantify the compound. The SA concentration was expressed as mg per kg of carrots in dry base (DB). The moisture content in the samples was determined by the method of drying in a stove (AACC 44-15A).

carrots (Daucus carota) [7] = assay: Effect of method of application (submergence or spraying) of glyphosate solution on SA accumulation in grated carrot (Example 4); details: glyphosate 482 g/L, 24 hours at 25° C.
Source text: This difference is attributed to the removal of signal molecules which induce the response to the wounding as part of the submergence process. The (at least partial) removal of extracellular adenosine triphosphate (eATP, produced by the wounding stress effect) occurs in the submerged material, and this may be related to lesser generation of reactive oxygen species (ROS), thus reducing the yield of SA in comparison with application by spraying. Abiotic wounding stress activates the metabolic pathways involved in the production of phenolic compounds while the application of glyphosate makes it possible to block the flow of SA to the production of other compounds, thus bringing about an accumulation of SA in the horticultural crop. Thus the wounded carrots have been treated with a solution of glyphosate (0-482 g/L) using one of the two different methods of application (submergence and spraying), the spraying method being preferred because of its better yields, and stored for 24 hours to determine the combined effect of wounding stress and glyphosate application on the accumulation of SA and PC. In the first (submerged) method of application the grated material was submerged in a ratio of 1:2 to 1:4 (kg of plant material:liters of glyphosate solution), in such a way that said material was wholly submerged in the glyphosate solution. […]

carrots (Daucus carota) [8] = assay: Effect of drying on accumulation of SA in wounding-stressed grated carrot (Example 2); details: vs grated carrot prior to storage (0 hours)
Method: as §1, §4, §5

[9] = vs grated carrot before storage (0 hours)
[10] = sprayed 482 g/L glyphosate, vs control samples (0 hours)

Structure (SMILES)	Increase in concentration on spraying a concentrated solution of glyphosate onto carrot tissue stressed by wounding (carrots (Daucus carota) [1])	Increase in content in the 482 g/L glyphosate treatment (carrots (Daucus carota) [1]; vs control samples at 24 hours) [%]	Increase in content in the 482 g/L glyphosate treatment (carrots (Daucus carota) [2]; vs control samples at 24 hours) [%]	Increase in concentration in dehydrated glyphosated grated material stored for 24 hours (carrots (Daucus carota) [2]; [9]) [%]	Increase in content in the 482 g/L glyphosate treatment (carrots (Daucus carota) [3]; vs control samples at 24 hours) [%]	Increase in concentration in dehydrated glyphosated grated material stored for 24 hours (carrots (Daucus carota) [3]) [%]	Increase in concentration after 24 hours of storage (carrots (Daucus carota) [1]; [10]) [%]	Increase in concentration in grated carrot stored for 24 hours (carrots (Daucus carota) [4]) [%]	Increase in concentration in grated carrot not sprayed with glyphosate (carrots (Daucus carota) [5]) [%]	Increase in concentration in nutraceutical powder stored for 24 hours (carrots (Daucus carota) [6]; after drying and grinding) [%]	Increase in concentration in grated carrot stored for 24 hours (carrots (Daucus carota) [6]; no glyphosate) [%]	Increase in concentration after 24 hours of storage (carrots (Daucus carota) [2]; [10]) [%]	Increase in concentration in glyphosated powder stored for 24 hours (carrots (Daucus carota) [2]; [9]) [%]	Increase in concentration after 24 hours' storage (carrots (Daucus carota) [3]; [10]) [%]	Increase in accumulation, grated carrot sprayed with glyphosate vs submerged samples (carrots (Daucus carota) [7])	Increase in concentration in dehydrated nutraceutical grated material stored for 24 hours (carrots (Daucus carota) [8]; after drying) [%]	Increase in concentration in grated carrot stored for 24 hours (carrots (Daucus carota) [8]; no glyphosate) [%]
O=C(/C=C/c1ccc(O)c(O)c1)O[C@@H]1C[C@](O)(C(=O)O)C[C@@H](O)[C@H]1O (single isomer, unassigned) [CA, chlorogenic acid]	> 5000%	~1980	~1940	~11620	~1930	~1700	–	–	–	–	–	–	–	–	–	–	–
O=C(O)C1=C[C@@H](O)[C@@H](O)[C@H](O)C1 (single isomer, unassigned) [SA, shikimic acid]	more than 1000%	–	–	–	–	~1550	~1735	~50	~77	~37	~48	~1720	~1470	~1766	~44% and ≈ 44%	~40	~45
